Experimental data published in patent US12121746B2, “Energy augmentation structures, energy emitters or energy collectors containing the same, and their use in methods and systems for treating cell proliferation disorders” (priority 2019, dated 2024).
Read-outs that look alike come from different tables or passages of the source.

Assays:
[1] = cited from earlier work
4T1-HER2 cells = details: multi-variable regression on 36 independent irradiation experiments; irradiated
Experimental: In-vitro X-PACT studies were conducted on cells prepared in the following manner. Cells were incubated in appropriate growing media and buffers before being trypsinized and plated evenly onto twelve (12) well plates for 24 hours. […] The plates were then irradiated with x-rays by placing the plate at a known distance from the x-ray source (e.g., 50 cm). After irradiation the cells were incubated on the plate for 48 hours prior to performing flow cytometry. For compatibility with 96-well Guava Nexin® assay, the remaining cells were again trypsinized (after the 48 hour incubation) and plated onto a 96-well plate. The phosphors used in this evaluation were designated as NP 200 and GTP 4300. […]
Cells plated in 12-well plates, where individual wells in each plate may receive different experimental conditions (e.g. psoralen concentration), but the same x-ray dose (i.e. all wells in a given plate receive the same x-ray dose). The first metric is metabolically viable cell count (or cell viability) determined from the number of whole cells per well as determined using forward scattering (FSC). […] (All wells on a given plate receive the same dose.) The second metric is Annexin V (+) signal, which is the fraction of the metabolically viable cells which expressed a positive Annexin V signal as determined by flow cell cytometry, and include any cells advancing toward early or late apoptotic cell death. […]

KP158B (sarcoma) = assay: UV light activated psoralen, Cell-Titer-Glo Luminescence Cell Viability Assay; format: cell-based, murine; details: psoralen 40 ρM; UV light 0, 0.25, 0.5, 1.0 J/cm^2; N=4; FIG. 51A
Experimental: (§1) Metabolic cell viability was also assessed visually using Methylene blue staining and ATP-induced Luminescence imaging (Cell-Titer-Glo® Luminescence Cell Viability Assay). The luminescence imaging permitted investigation of the cytotoxicity of psoralen activated directly with a UV lamp, and in the absence of phosphors and x-ray radiation. […] The psoralen concentration was 40 ρM.

4T1 = assay: as above; format: cell-based, murine; details: psoralen 40 ρM; UV light 0, 0.25, 0.5, 1.0 J/cm^2; N=4; FIG. 51A
Experimental: as §1

[2] = test system: CT2A (murine malignant glioma); assay: as above; format: cell-based; details: psoralen 40 ρM; UV light 0, 0.25, 0.5, 1.0 J/cm^2; N=4; FIG. 51A
Experimental: as §1

[3] = test system: syngeneic 4T1-HER2 tumors; assay: In-vivo X-PACT trial on syngeneic tumors; set-up: species or system BALB/c mice; details: treatment arms with x-ray; 5 μM psoralen (AMT), 100 μg of phosphor; FIG. 54
Experimental: There were 4 arms of the trial: […] […] There were 6-8 mice per arm, and the study was repeated a second time, yielding effective sample sizes of 12-16. […] A consistent x-ray irradiation technique was used for all arms (except saline control) which was 2 Gy delivered at 75 kVp by 30 mA in 3 minutes.

[4] = in vivo; cited from earlier work

CC(=O)[O-].CC(=O)[O-].CCc1c(CC)c2cc3nc(cnc4cc(OCCOCCOCCOC)c(OCCOCCOCCOC)cc4ncc4nc(cc1[n-]2)C(CCCO)=C4C)C(C)=C3CCCO.O.[Lu+3] [Lutetium texahyrin, Motexafin lutetium]
Length of photosensitization ([1]; in vivo): 24 to 48 h | duration of skin photosensitivity ([1]; in vivo): 24 to 48 h

Oc1cccc(-c2c3nc(c(-c4cccc(O)c4)c4ccc([nH]4)c(-c4cccc(O)c4)c4nc(c(-c5cccc(O)c5)c5ccc2[nH]5)CC4)C=C3)c1 [Foscan, Tetra (m-hydroxyphenyl) chlorin]
Length of photosensitization ([1]; Table 3): 2 weeks | duration of skin photosensitivity [1]: approximately 2 weeks

O=c1ccc2cc3ccoc3cc2o1 [psoralen]
cytotoxicity (Annexin V signal) (4T1-HER2 cells): neither psoralen nor phosphor alone had a strong effect | viable cells (KP158B (sarcoma)): reduce viable cells | viable cells (4T1): reduce viable cells | viable cells [2]: reduce viable cells | tumor growth effect [3]: slightly higher component effect

Vitamin B12
route of excretion [4]: excreted by glomerular filtration
